Experimental data reported in patent publication US20210220408A1, “ARYL HYDROCARBON RECEPTOR ANTAGONISTS AND METHODS OF USE” (Magenta Therapeutics Inc., priority 2018, published 2021).

Assays:
[1] = system: mobilized peripheral blood CD34+ cells; assay: CD34+ expansion assay; assay type: cell-based; conditions: Homo sapiens; read-out: CD34 Frequency EC50
Description: Approximately 3,000 mobilized peripheral blood CD34+ cells were plated per well in 384-well plate at a final volume of 45 μL in HSC growth media (SFEM supplemented with Pen/Strep, 50 ng/mL FLT3L, TPO, SCF and IL-6). Serial dilutions were made in HSC growth media with a top final concentration of 10 μM. 5 μL 10× stock was added to each well. The plate was gently tapped on all sides and incubated for 7 days at 37° C./5% CO2. On day 7, the media was aspirated on a Biotek plate washer and 30 μL staining solution was added to the cells with antibodies against CD34-PE, CD90-APC, CD45RA-PE-CF594 in PBS. Cells were washed once in PBS and resuspended in 80 μL for final volume. 40 μL was acquired by flow cytometry (BD Celesta).

[2] = biological target: T1, aryl hydrocarbon receptor (AHR) (Homo sapiens, UniProt P35869); assay: DRE-Luciferase reporter high-throughput screen (AHR antagonist, VAF347-activated)
T1 sequence (P35869 11-848): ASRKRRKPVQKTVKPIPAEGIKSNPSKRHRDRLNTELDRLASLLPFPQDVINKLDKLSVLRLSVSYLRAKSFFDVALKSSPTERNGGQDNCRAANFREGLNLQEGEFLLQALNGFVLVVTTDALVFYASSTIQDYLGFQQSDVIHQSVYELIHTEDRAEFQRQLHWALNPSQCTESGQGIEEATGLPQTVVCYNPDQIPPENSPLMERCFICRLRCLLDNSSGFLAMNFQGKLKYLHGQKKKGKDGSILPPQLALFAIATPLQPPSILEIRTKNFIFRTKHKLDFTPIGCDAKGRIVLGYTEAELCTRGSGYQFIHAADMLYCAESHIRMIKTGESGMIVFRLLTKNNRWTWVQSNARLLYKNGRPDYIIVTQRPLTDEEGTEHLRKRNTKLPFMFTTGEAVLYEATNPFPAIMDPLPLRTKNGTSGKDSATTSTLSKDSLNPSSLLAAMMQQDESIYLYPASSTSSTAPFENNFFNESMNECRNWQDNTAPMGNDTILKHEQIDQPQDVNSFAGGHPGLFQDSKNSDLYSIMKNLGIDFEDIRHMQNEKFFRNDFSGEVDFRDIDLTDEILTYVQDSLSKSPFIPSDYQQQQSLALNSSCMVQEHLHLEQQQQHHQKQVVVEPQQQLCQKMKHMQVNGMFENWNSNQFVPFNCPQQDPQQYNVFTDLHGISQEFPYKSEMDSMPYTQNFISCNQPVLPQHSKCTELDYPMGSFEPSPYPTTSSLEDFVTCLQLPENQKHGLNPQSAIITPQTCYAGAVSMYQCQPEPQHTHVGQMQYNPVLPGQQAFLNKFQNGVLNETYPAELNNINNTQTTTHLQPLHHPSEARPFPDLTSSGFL
Description: HepG2 hepatocellular carcinoma cells were transfected with a dioxin-response element (DRE) Firefly luciferase reporter construct. Luciferase transcription was activated with the aryl hydrocarbon receptor (AHR) agonist, VAF347. Addition of an AHR antagonist results in inhibition of the luciferase transcription and a loss of signal in the assay.
HepG2, a hepatocellular carcinoma cell line, was transfected with the dioxin-response element Firefly luciferase reporter construct using the TransIT-transfection system. Prior to transfection, HepG2 cells (Sigma) were cultured at 90% confluency in Eagle's Modified Essential Medium (Sigma)+2 mM Glutamine (Sigma), +1^% Non Essential Amino Acids (Sigma)+10% Fetal Bovine Serum (Hyclone) and harvested and counted (Biorad TC20 cell counter). OptilMEM serum-free media and TransIT (Mirus) were mixed for transfection in 150 mm dishes by adding 240 μL Transit to 3.0 mL OptiMEM, vortexing briefly to mix, and incubating at room temperature for 20 minutes. The DNA mixture was prepared by adding 80 μg plasmid (pGudLuc6.1 plasmid, Garrison et al., (1996) Fundam. Appl. Toxicol., 30, 194-203), inverting to mix, and incubating at room temperature for 30 minutes. 30×10^6 HepG2 cells were seeded in 30 mL media and 3.3 mL of the DNA, OptiMEM, and TransIT mixture was added dropwise to the plate. The plate was mixed by rocking and incubated at 37° C./5% CO2 overnight. The next day, cells were harvested by aspirating media, washing once with sterile phosphate buffered saline (PBS, Gibco), trypsinzing with 0.05% Trypsin (Corning) and harvesting cells with culture medium, and freezing with Cell Freezing Media (Gibco) at 5 50×10^6 cells/vial in 1 mL/vial.
Transiently-transfected frozen HepG2 cells with DRE-Luciferase, were thawed in a 37° C. water bath and resuspended in complete media. 4 μL cells at 15,000 cells per well was transferred into the wells of a 1536-well Alphaplate assay plate (PerkinElmer) using TEMPEST liquid dispenser. The plate was centrifuged at 1000 rpm for 1 minute. 30 nL of the controls (1 μM (S)-2-(6-((2-(1H-indol-3-yl)ethyl)amino)-2-(5-fluoropyridin-3-yl)-9H-purin-9-yl)propan-1-ol or 100% DMSO) were transferred to the assay plate using the Pin Tool on BRAVO. 1 μL of VAF347 (15 nM final concentration) in complete media was added to the wells using TEMPEST. The plate was centrifuged at 1000 rpm for 1 minute and incubated at 37° C./5% CO2 overnight. After incubation, the plate was removed from the incubator and brought to room temperature. 2 μL of room temperature Steady-Glo luciferase detection reagent (Promega) was added to the wells with TEMPEST. The plate was centrifuged at 2000 rpm for 1 minute, sealed with clear plastic seal and kept at room temperature for 15 minutes prior to measuring luminescence on ENVISION.
Approximately 166,000 compounds were screened in 132 1536-well plates in the luciferase reporter gene assay at a final concentration of 12 μM. […] Each compound was tested at 0.1 μM, 1.0 μM, and 10 μM in the DRE luciferase assay and Cell Titer Glo cytotoxicity assay (Promega). […] 512 compounds were selected for 10-point dose-response in the AHR luciferase reporter assay and the Cell Titer Glo cytotoxicity assay.

Row | Structure (SMILES) | EC50 [1] | IC50 [2]
1 | Cc1cc(C(=O)NNC(=O)c2cnn(-c3ccccc3C)c2C(F)(F)F)c(C)o1 [compound 139] | ≥ 5000 nM | 500 to 1000 nM
2 | N#Cc1cn(-c2ccc(Cl)cc2)nc1C(=O)c1cccs1 [compound 91] | < 500 nM | 200 to 500 nM
3 | Cn1nc(C(C)(C)C)cc1-c1nn2c(-c3cccs3)nnc2s1 [compound 73] | 1000 to 5000 nM | 500 to 1000 nM
4 | O=C1CN(C(=O)c2sc3ccccc3c2Cl)c2ccccc2N1 [compound 132] | 1000 to 5000 nM | 500 to 1000 nM
5 | Clc1ccc(-c2nc(-c3cnccn3)no2)cc1 [compound 140] | ≥ 5000 nM | 500 to 1000 nM
6 | Cc1ccc(-c2c(C)sc(NC(=O)c3cccnc3)c2C(N)=O)cc1 [compound 42] | 1000 to 5000 nM | 500 to 1000 nM
7 | Cc1cc(-c2nnc3sc(-c4ccc(F)cc4)nn23)[nH]n1 [compound 71] | 500 to 1000 nM | 500 to 1000 nM
8 | Cc1ccc(NC(=O)c2cccc(OCc3c(C)noc3C)c2)c(Cl)c1 [compound 3] | 500 to 1000 nM | 200 to 500 nM
9 | CCCSc1nc(N)c(C(=O)Nc2ccccc2)cc1C#N [compound 16] | < 500 nM | 200 to 500 nM
10 | Cc1noc(C)c1COc1cccc(C(=O)/N=c2/sccn2C)c1 [compound 118] | < 500 nM | < 200 nM
11 | COc1ccc(Nc2nc(-c3ccccn3)cs2)cc1 [compound 59] | < 500 nM | 500 to 1000 nM
12 | Cc1ccc(-c2csc(-c3ccncc3)n2)c(C)c1 [compound 52] | 1000 to 5000 nM | 500 to 1000 nM
13 | Cc1cnn(-c2nc(-c3ccc(F)cc3)cc(C(F)(F)F)n2)c1 [compound 83] | < 500 nM | < 200 nM
14 | FC(F)(F)Oc1ccc(-c2nnc(-c3cccnc3)o2)cc1 [compound 123] | 1000 to 5000 nM | 500 to 1000 nM
15 | O=C(Nc1ccccc1Cl)c1cnc(-c2noc3ccccc23)s1 [compound 23] | 500 to 1000 nM | 200 to 500 nM
16 | Nc1cc(-c2ccc3c(c2)CCCC3)nn1-c1ccccc1 [compound 92] | ≥ 5000 nM | 500 to 1000 nM
17 | O=C(Nc1ccc2ccccc2n1)c1ccccc1Cl [compound 12] | 500 to 1000 nM | 500 to 1000 nM
18 | O=C(Nc1ccc(-c2nnc3n2CCCCC3)cc1)c1cccc2cccnc12 [compound 24] | 500 to 1000 nM | 200 to 500 nM
19 | Cc1nn2c(C)c(C(=O)OC(C)C)nnc2c1-c1ccccc1 [compound 106] | 500 to 1000 nM | 500 to 1000 nM
20 | c1ccc(-c2ccc(OCc3ccno3)cc2)cc1 [130A] | – | 1000 to 2000 nM
21 | Cc1ccc(NC(=O)c2cc3c(=O)[nH]c(=O)n(C)c3nc2C)cc1Cl [28B] | – | 200 to 500 nM
22 | O=C(Nc1ccc(Cl)cn1)C1Cc2ccccc2C1 [26B] | – | 500 to 1000 nM
23 | CCn1cc(C(=O)Nc2ccc(Br)cn2)cn1 [33A] | – | > 2000 nM
24 | Cc1ccc(N)cc1Nc1nccc(-c2cccnc2)n1 [compound 85] | – | 500 to 1000 nM

Row | Structure (SMILES) | EC50 [1] | IC50 [2]
25 | O=C(Nc1cc2ccccc2s1)c1ccccc1 [23B] | – | 1000 to 2000 nM
26 | CCc1cc2c(=O)c(-c3nc(C)cs3)coc2c(CN2CCCC(c3cccnc3)C2)c1O (stereo not drawn) [197A] | – | 1000 to 2000 nM
27 | Cc1cc(C)c2oc(-c3cccc(NC(=O)c4cccnc4)c3C)nc2c1 [15A] | – | 1000 to 2000 nM
28 | Cc1ccc(S(=O)(=O)N=C(N)Nc2nc(C)c3cc(C)ccc3n2)cc1 [164A] | – | 1000 to 2000 nM
29 | Cc1nc2nc(SCCOc3ccc(C#N)cc3)nn2c(C)c1C [125A] | – | 1000 to 2000 nM
30 | c1ccc(-c2nc(CSc3nncn3-c3ccccc3)co2)cc1 [133A] | – | 1000 to 2000 nM
31 | N#Cc1ccc(-c2csc(-c3ccsc3)n2)cc1 [33B] | – | 200 to 500 nM
32 | O=C(c1csc(-c2ccc(Cl)cc2)c1)N1CCCCC1 [148A] | – | 1000 to 2000 nM
33 | O=[N+]([O-])c1cccc(-c2csc(-c3cccc(-n4cnc(Cl)c4Cl)c3)n2)c1 [compound 51] | – | 200 to 500 nM
34 | N#Cc1ccccc1OCc1ccc(C(N)=O)cc1 [142A] | – | > 2000 nM
35 | COc1ccc(N2CCN(c3nc(C(F)(F)F)cs3)CC2)cc1 [compound 111] | – | 500 to 1000 nM
36 | Cc1ccc(OCc2nc(N)nc(N(C)C)n2)cc1C [51B] | – | 1000 to 2000 nM
37 | O=C(COC(=O)c1cn2ccccc2n1)Nc1ccc(Cl)cc1Cl [117A] | – | > 2000 nM
38 | CCOC(=O)N1CCN(c2nc(Nc3ccc(C)cc3C)c3nccnc3n2)CC1 [82A] | – | 1000 to 2000 nM
39 | CCCOc1ccc(-c2csc(N3CCCC3=O)n2)cc1 [compound 54] | – | 500 to 1000 nM
40 | CN1/C(=N/c2ccccc2)SCC1(O)c1ccc([N+](=O)[O-])cc1 (stereo not drawn) [compound 142] | – | 200 to 500 nM
41 | N#Cc1cc(F)c(NC(=O)c2nsc(Cl)c2Cl)cc1F [28A] | – | 1000 to 2000 nM
42 | CC(=O)c1oc2ccc3c(C)cc(=O)oc3c2c1C [118B] | – | > 2000 nM
43 | CC(C)CCNC(=O)c1[nH]nc2c1COc1ccccc1-2 [183A] | – | > 2000 nM
44 | O=C(Cn1cnnn1)N(CCc1ccccc1)c1nc(-c2ccccc2)cs1 [41B] | – | 1000 to 2000 nM
45 | COc1ccnc(N2CCN(c3ccc(Cl)cc3)CC2)c1C#N [compound 80] | – | < 200 nM
46 | COc1ccc(C(=O)c2cnc3ncccn23)cc1 [121A] | – | > 2000 nM
47 | COc1ccc(CC(=O)Nc2ccc(-c3nccs3)cc2)cc1S(=O)(=O)N1CCOCC1 [compound 63] | – | 500 to 1000 nM
48 | CSc1nc(-c2ccccc2)nc2[nH]c(-c3ccccc3)cc(=O)c12 [166A] | – | 1000 to 2000 nM

Row | Structure (SMILES) | EC50 [1] | IC50 [2]
49 | Cc1nn(C)cc1-c1nnc(-c2cccc(C(F)(F)F)c2)o1 [138A] | – | 1000 to 2000 nM
50 | C#CCn1cnc2c(nnn2-c2ccc(C)c(Cl)c2)c1=O [178A] | – | > 2000 nM
51 | O=C(Cc1ccccc1)Nc1ccc2nc(C(F)(F)F)[nH]c2c1 [111A] | – | 1000 to 2000 nM
52 | CCn1cnc(-c2nc(C(=O)Nc3cccc(F)c3)c3ccccn23)c1 [48A] | – | > 2000 nM
53 | Cn1nc(C(F)(F)F)c2cc(C(=O)Nc3ccc(F)cc3)sc21 [24B] | – | 500 to 1000 nM
54 | Cc1csc(Nc2nc(N)c(C(=O)Nc3cc(Cl)ccc3F)o2)n1 [compound 37] | – | 500 to 1000 nM
55 | N#Cc1cnc2c(-c3ccc(Cl)cc3)cnn2c1 [70B] | – | 500 to 1000 nM
56 | c1ccc(-c2ccc(OCc3cn4ccsc4n3)cc2)cc1 [96A] | – | 1000 to 2000 nM
57 | Cc1csc(-c2ccc(NC(=O)NCc3cc(C)on3)cc2)n1 [62A] | – | > 2000 nM
58 | CCCCCc1ccc2c(C#N)c(OC)ccc2c1 [117B] | – | 1000 to 2000 nM
59 | CN(Cc1ccn(C)n1)C(=O)c1cc(-c2ccc(Cl)c(Cl)c2)[nH]n1 [104A] | – | > 2000 nM
60 | CC(=O)c1ccc(C(=O)Nc2ccc(C)cc2Cl)s1 [21A] | – | 1000 to 2000 nM
61 | Cc1cn2cc(-c3ccc(F)cc3)nc2s1 [compound 67] | – | 500 to 1000 nM
62 | CCCNC(=O)c1cc2cc3ccc(C)cc3nc2o1 [184A] | – | 1000 to 2000 nM
63 | Cn1c(SCc2ccccc2Cl)nnc1-c1csc(-c2cccnc2)n1 [53A] | – | 1000 to 2000 nM
64 | CS(=O)(=O)Nc1cccc(C(=O)Nc2cccc3cccnc23)c1 [36A] | – | 1000 to 2000 nM
65 | O=C1CSC(N2CCN(c3ccc(Cl)c(Cl)c3)CC2)=N1 [71A] | – | > 2000 nM
66 | Cc1cc(C)nc(N2CCN(c3ccc(Cl)cc3)CC2)n1 [70A] | – | > 2000 nM
67 | COc1ccc([N+](=O)[O-])cc1-c1ccc(/C=N/Nc2ccccc2)o1 [44B] | – | 1000 to 2000 nM
68 | COc1ccc(CC(=O)Nc2ccc(-c3csc(C)n3)cc2)cc1 [143A] | – | > 2000 nM
69 | O=C(NCCc1ccccc1)c1cnc(-c2noc3ccccc23)s1 [60A] | – | > 2000 nM
70 | Cc1cc([N+](=O)[O-])c(N)cc1N1CCN(c2ccccc2)CC1 [67A] | – | 1000 to 2000 nM
71 | Cc1ccc(-c2nnc(-c3ccncc3)[nH]2)c([N+](=O)[O-])c1 [109A] | – | 1000 to 2000 nM
